We go through 22 molecules from patent publication US20250136607A1 (REGOR PHARMACEUTICALS, INC., priority 2021, published 2025).

Broadly, the IC50 is the concentration that gives 50% inhibition.

Some results are limits rather than exact numbers.

For this experiment, the target named is Protein arginine deiminase 4 (PAD4) (Homo sapiens, UniProt Q9UM07). Description: PAD4 ammonia release assay. Format: biochemical. The following applies: PAD4 ammonia release assay, BAEE substrate, 60 min at RT; read-out: Average IC50 Abs. In short, it runs like this: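 PAD4 (20 nM, 2× working solution) was preincubated with compound for 15 min at RT in 100 mM HEPES pH 8.0, 2 mM CaCl2, 50 mM NaCl, 0.1 mM TCEP, BSA at 1.25% DMSO. BAEE (600 μM, 2× mix) reacted 60 min, then OPA/DTT/EDTA detection for 120 min. IC50 came from a 4-parameter fit, normalized to 50 μM reference (100%) and DMSO (0%).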
Sequence of Protein arginine deiminase 4 (PAD4) (Q9UM07 whole entry): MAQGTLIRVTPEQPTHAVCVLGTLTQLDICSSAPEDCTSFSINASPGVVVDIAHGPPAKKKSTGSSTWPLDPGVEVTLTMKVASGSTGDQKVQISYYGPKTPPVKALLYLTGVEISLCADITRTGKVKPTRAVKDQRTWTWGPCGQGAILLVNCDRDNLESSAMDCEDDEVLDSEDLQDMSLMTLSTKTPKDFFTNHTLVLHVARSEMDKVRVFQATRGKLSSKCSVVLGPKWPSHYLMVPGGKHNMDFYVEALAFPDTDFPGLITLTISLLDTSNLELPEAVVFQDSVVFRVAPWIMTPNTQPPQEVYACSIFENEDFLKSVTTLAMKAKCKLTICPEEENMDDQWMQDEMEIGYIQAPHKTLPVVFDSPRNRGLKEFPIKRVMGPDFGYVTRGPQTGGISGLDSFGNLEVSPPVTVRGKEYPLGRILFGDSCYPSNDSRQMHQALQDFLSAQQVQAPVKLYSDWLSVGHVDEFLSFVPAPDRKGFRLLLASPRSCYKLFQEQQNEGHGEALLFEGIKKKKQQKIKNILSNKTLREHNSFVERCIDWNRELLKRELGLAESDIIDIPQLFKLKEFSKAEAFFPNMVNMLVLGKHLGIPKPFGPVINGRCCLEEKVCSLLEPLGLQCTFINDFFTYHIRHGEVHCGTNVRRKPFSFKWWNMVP

In the case of `Cn1c(-c2cc3cc(C#N)cc4c3n2[C@H](C2CC2)CN4)nc2cc(C(=O)N3C[C@H]4CC[C@@H]3[C@@H]4N)cc(F)c21` [Example 117, (R)-5-(5-((1R,4R,7R)-7-amino-2-azabicyclo[2.2.1]heptane-2-carbonyl)-7-fluoro-1-methyl-1H-benzo[d]imidazol-2-yl)-3-cyclopropyl-2,3-dihydro-1H-pyrrolo[1,2,3-de]quinoxaline-8-carbonitrile], the half-inhibitory concentration (IC50) is over 5000 nM.
On to `Cn1c(-c2cc3cc(C#N)cc4c3n2[C@@H](C2CC2)CN4)nc2cc(C(=O)N3C[C@H]4CC[C@@H]3[C@@H]4N)cc(F)c21` [Example 118, (S)-5-(5-((1R,4R,7R)-7-amino-2-azabicyclo[2.2.1]heptane-2-carbonyl)-7-fluoro-1-methyl-1H-benzo[d]imidazol-2-yl)-3-cyclopropyl-2,3-dihydro-1H-pyrrolo[1,2,3-de]quinoxaline-8-carbonitrile], for which the half-inhibitory concentration (IC50) was 100 to 500 nM.
On to `Cn1c(-c2cc3c(C#N)ccc4c3n2[C@H](C2CC2)CN4)nc2cc(C(=O)N3C[C@H]4CC[C@@H]3[C@@H]4N)cc(F)c21` [Example 119, (R)-5-(5-((1R,4R,7R)-7-amino-2-azabicyclo[2.2.1]heptane-2-carbonyl)-7-fluoro-1-methyl-1H-benzo[d]imidazol-2-yl)-3-cyclopropyl-2,3-dihydro-1H-pyrrolo[1,2,3-de]quinoxaline-7-carbonitrile], for which the 50% inhibitory concentration (IC50) was over 5000 nM.
The value for `Cn1c(-c2cc3c(C#N)ccc4c3n2[C@@H](C2CC2)CN4)nc2cc(C(=O)N3C[C@H]4CC[C@@H]3[C@@H]4N)cc(F)c21` [Example 120, (S)-5-(5-((1R,4R,7R)-7-amino-2-azabicyclo[2.2.1]heptane-2-carbonyl)-7-fluoro-1-methyl-1H-benzo[d]imidazol-2-yl)-3-cyclopropyl-2,3-dihydro-1H-pyrrolo[1,2,3-de]quinoxaline-7-carbonitrile] was over 5000 nM; that for `Cn1c(-c2cc3ccc(C(F)(F)F)c4c3n2C(C2CC2)CN4)nc2cc(C(=O)N3C[C@H]4CC[C@@H]3[C@@H]4N)cc(F)c21` (stereo partly drawn) [Example 121, [(1R,4R,7R)-7-amino-2-azabicyclo[2.2.1]heptan-2-yl]-[2-[11-cyclopropyl-7-(trifluoromethyl)-1,9-diazatricyclo[6.3.1.0^4,12]dodeca-2,4,6,8(12)-tetraen-2-yl]-7-fluoro-1-methyl-benzimidazol-5-yl]methanone] was at most 100 nM; that for `CCC1C(=O)Nc2c(Cl)ccc3cc(-c4nc5cc(C(=O)N6C[C@H]7CC[C@@H]6[C@@H]7N)cc(F)c5n4C)n1c23` (stereo partly drawn) [Example 124, 5-(5-((1R,4R,7R)-7-amino-2-azabicyclo[2.2.1]heptane-2-carbonyl)-7-fluoro-1-methyl-1H-benzo[d]imidazol-2-yl)-9-chloro-3-ethyl-1H-pyrrolo[1,2,3-de]quinoxalin-2(3H)-one] was 500 to 5000 nM.
The value for `CCC1CNc2c(Cl)ccc3cc(-c4nc5cc(C(=O)N6C[C@H]7CC[C@@H]6[C@@H]7N)cc(F)c5n4C)n1c23` (stereo partly drawn) [Example 125, ((1R,4R,7R)-7-amino-2-azabicyclo[2.2.1]heptan-2-yl)(2-(9-chloro-3-ethyl-2,3-dihydro-1H-pyrrolo[1,2,3-de]quinoxalin-5-yl)-7-fluoro-1-methyl-1H-benzo[d]imidazol-5-yl)methanone] was over 5000 nM; that for `CCC1C(=O)Nc2c(F)ccc3cc(-c4nc5cc(C(=O)N6C[C@H]7CC[C@@H]6[C@@H]7N)cc(F)c5n4C)n1c23` (stereo partly drawn) [Example 126, 5-(5-((1R,4R,7R)-7-amino-2-azabicyclo[2.2.1]heptane-2-carbonyl)-7-fluoro-1-methyl-1H-benzo[d]imidazol-2-yl)-3-ethyl-9-fluoro-1H-pyrrolo[1,2,3-de]quinoxalin-2(3H)-one] was 500 to 5000 nM; that for `CCC1C(=O)Nc2c(C#N)ccc3cc(-c4nc5cc(C(=O)N6C[C@H]7CC[C@@H]6[C@@H]7N)cc(F)c5n4C)n1c23` (stereo partly drawn) [Example 127, 5-(5-((1R,4R,7R)-7-amino-2-azabicyclo[2.2.1]heptane-2-carbonyl)-7-fluoro-1-methyl-1H-benzo[d]imidazol-2-yl)-3-ethyl-2-oxo-2,3-dihydro-1H-pyrrolo[1,2,3-de]quinoxaline-9-carbonitrile] was 500 to 5000 nM.
In the case of `CCC1CNc2c(C#N)ccc3cc(-c4nc5cc(C(=O)N6C[C@H]7CC[C@@H]6[C@@H]7N)cc(F)c5n4C)n1c23` (stereo partly drawn) [Example 128, 5-(5-((1R,4R,7R)-7-amino-2-azabicyclo[2.2.1]heptane-2-carbonyl)-7-fluoro-1-methyl-1H-benzo[d]imidazol-2-yl)-3-ethyl-2,3-dihydro-1H-pyrrolo[1,2,3-de]quinoxaline-9-carbonitrile], the concentration for half-maximal inhibition (IC50) is 100 to 500 nM.
To `CCC1C(=O)Nc2cccc3cc(-c4nc5cc(C(=O)N6C[C@H]7CC[C@@H]6[C@@H]7N)cc(F)c5n4C)n1c23` (stereo partly drawn) [Example 129, 5-(5-((1R,4R,7R)-7-amino-2-azabicyclo[2.2.1]heptane-2-carbonyl)-7-fluoro-1-methyl-1H-benzo[d]imidazol-2-yl)-3-ethyl-1H-pyrrolo[1,2,3-de]quinoxalin-2(3H)-one] belongs 100 to 500 nM; to `CCC1CNc2c(F)ccc3cc(-c4nc5cc(C(=O)N6C[C@H]7CC[C@@H]6[C@@H]7N)cc(F)c5n4C)n1c23` (stereo partly drawn) [Example 131, ((1R,4R,7R)-7-amino-2-azabicyclo[2.2.1]heptan-2-yl)(2-(3-ethyl-9-fluoro-2,3-dihydro-1H-pyrrolo[1,2,3-de]quinoxalin-5-yl)-7-fluoro-1-methyl-1H-benzo[d]imidazol-5-yl)methanone], 100 to 500 nM.
To `CCC1CNc2c(C)ccc3cc(-c4nc5cc(C(=O)N6C[C@H]7CC[C@@H]6[C@@H]7N)cc(F)c5n4C)n1c23` (stereo partly drawn) [Example 132, ((1R,4R,7R)-7-amino-2-azabicyclo[2.2.1]heptan-2-yl)(2-(3-ethyl-9-methyl-2,3-dihydro-1H-pyrrolo[1,2,3-de]quinoxalin-5-yl)-7-fluoro-1-methyl-1H-benzo[d]imidazol-5-yl)methanone] belongs 100 to 500 nM; to `CC[C@H]1[C@H](C)Nc2cccc3cc(-c4nc5cc(C(=O)N6C[C@H]7CC[C@@H]6[C@@H]7N)cc(F)c5n4C)n1c23` [Example 134, trans-((1R,4R,7R)-7-amino-2-azabicyclo[2.2.1]heptan-2-yl)(2-(3-ethyl-2-methyl-2,3-dihydro-1H-pyrrolo[1,2,3-de]quinoxalin-5-yl)-7-fluoro-1-methyl-1H-benzo[d]imidazol-5-yl)methanone], over 5000 nM; to `CCC1CNc2nccc3cc(-c4nc5cc(C(=O)N6C[C@H]7CC[C@@H]6[C@@H]7N)cc(F)c5n4C)n1c23` (stereo partly drawn) [Example 135, ((1R,4R,7R)-7-amino-2-azabicyclo[2.2.1]heptan-2-yl)(2-(3-ethyl-4,5-dihydro-3H-2a, 5,6-triazaacenaphthylen-2-yl)-7-fluoro-1-methyl-1H-benzo[d]imidazol-5-yl)methanone], over 5000 nM.
Consider `CCC1CNc2nccc3cc(-c4nc5cc(C(=O)N6C[C@H](N)C[C@@H](F)C6)cc(F)c5n4C)n1c23` (stereo partly drawn) [Example 136, ((3R,5R)-3-amino-5-fluoropiperidin-1-yl)(2-(3-ethyl-4,5-dihydro-3H-2a, 5,6-triazaacenaphthylen-2-yl)-7-fluoro-1-methyl-1H-benzo[d]imidazol-5-yl)methanone], for which the 50% inhibitory concentration (IC50) was over 5000 nM.
On to `CCC1C(=O)Nc2cccc3cc(-c4nc5cc(C(=O)N6C[C@H]7CC[C@@H]6[C@@H]7N)cnn5c4C)n1c23` (stereo partly drawn) [Example 137, 2-[7-[(1R,4R,7R)-7-amino-2-azabicyclo[2.2.1]heptane-2-carbonyl]-3-methyl-imidazo[1,2-b]pyridazin-2-yl]-11-ethyl-1,9-diazatricyclo[6.3.1.04,12]dodeca-2,4,6,8(12)-tetraen-10-one], for which the half-maximal inhibitory concentration (IC50) was 500 to 5000 nM.
To `CCC1CNc2cccc3cc(-c4nc5cc(C(=O)N6C[C@H]7CC[C@@H]6[C@@H]7N)cnn5c4C)n1c23` (stereo partly drawn) [Example 138, [(1R,4R,7R)-7-amino-2-azabicyclo[2.2.1]heptan-2-yl]-[2-(11-ethyl-1,9-diazatricyclo[6.3.1.0^4,12]dodeca-2,4,6,8(12)-tetraen-2-yl)-3-methyl-imidazo[1,2-b]pyridazin-7-yl]methanone] belongs 500 to 5000 nM; to `CCC1CC(=O)c2cccc3cc(-c4nc5cc(C(=O)N6C[C@H]7CC[C@@H]6[C@@H]7N)cc(F)c5n4C)n1c23` (stereo partly drawn) [Example 139, 2-(5-((1R,4R,7R)-7-amino-2-azabicyclo[2.2.1]heptane-2-carbonyl)-7-fluoro-1-methyl-1H-benzo[d]imidazol-2-yl)-4-ethyl-4,5-dihydro-6H-pyrrolo[3,2,1-ij]quinolin-6-one], 500 to 5000 nM.
To `Cn1c(-c2cc3ccc4c(c3n2CC2CC2)NC(=O)C4(C)C)nc2cc(C(=O)N3C[C@H]4CC[C@@H]3[C@@H]4N)cc(F)c21` [Example 141, 7-(5-((1R,4R,7R)-7-amino-2-azabicyclo[2.2.1]heptane-2-carbonyl)-7-fluoro-1-methyl-1H-benzo[d]imidazol-2-yl)-8-(cyclopropylmethyl)-3,3-dimethyl-3,8-dihydropyrrolo[3,2-g]indol-2(1H)-one] belongs 500 to 5000 nM; to `Cn1c(-c2cc3ccc4c(c3n2CC2CC2)NCC4(C)C)nc2cc(C(=O)N3C[C@H]4CC[C@@H]3[C@@H]4N)cc(F)c21` [Example 142, ((1R,4R,7R)-7-amino-2-azabicyclo[2.2.1]heptan-2-yl)(2-(1-(cyclopropylmethyl)-6,6-dimethyl-1,6,7,8-tetrahydropyrrolo[3,2-g]indol-2-yl)-7-fluoro-1-methyl-1H-benzo[d]imidazol-5-yl)methanone], 500 to 5000 nM; to `Cn1c(-c2cc3ccc4c(c3n2CC2CC2)CCN4)nc2cc(C(=O)N3C[C@H]4CC[C@@H]3[C@@H]4N)cc(F)c21` [Example 143, ((1R,4R,7R)-7-amino-2-azabicyclo[2.2.1]heptan-2-yl)(2-(1-(cyclopropylmethyl)-1,6,7,8-tetrahydropyrrolo[2,3-e]indol-2-yl)-7-fluoro-1-methyl-1H-benzo[d]imidazol-5-yl)methanone], 100 to 500 nM.
